Assay results from patent publication US11787839B2, “Targeting α2δ-1-bound glutamate receptors for treating diseases and disorders” (Board of Regents, The University of Texas System, priority 2017, dated 2023).
Entries after “also recorded” stand apart in the source; their conditions may differ.

Legend:
SHRs = test: PVN microinjection and recording of ABP and RSNA in SHRs; type: in vivo, rat
Experimental: PVN microinjection and recording of renal sympathetic nerve activity: Rats were anaesthetized via i.p. administration of a mixture of α-chloralose (60 mg kg-1) and urethane (800 mg kg-1) and mechanically ventilated with trachea cannulation. The arterial blood pressure (ABP) was monitored via a catheter placed in the left femoral artery, and heart rate (HR) was extracted from the pulsatile pressure wave. A retroperitoneal incision was made, and a branch of the left renal postganglionic sympathetic nerve was isolated under a surgical microscope. The renal sympathetic nerve was cut distally to ensure that afferent activity was not recorded. The ABP, HR and renal sympathetic nerve activity (RSNA) were recorded using a 1401-PLUS analogue-to-digital converter and Spike2 system (Cambridge Electronic Design, Cambridge, UK). After the brain was exposed, a microinjection pipette (tip diameter 20-30 μm) was advanced into the PVN in accordance with the stereotactic co-ordinates: 1.6-2.0 mm caudal to the bregma, 0.5 mm lateral to the midline and 7.0-7.5 mm ventral to the dura. The microinjection was performed using a Nanoject II (Drummond Scientific Company) and monitored using a surgical microscope as described previously (Li & Pan, 2006, 2007; Qiao et al. 2017). […] At the end of each experiment, the electrical background noise was measured after the proximal end of renal nerve was crushed at the end of each experiment. To determine the location of the injection site and diffusion of the drugs in the PVN, 5% rhodamine-labelled fluorescent microspheres (0.04 μm; Molecular Probes) were included in the injection solution. Rats were excluded from the data analysis if the microinjections were misplaced outside the PVN.

[1] = test system: presynaptic NMDARs of spinal dorsal horn neurons; test: Spinal cord slice recordings, morphine-treated WT and Cacna2d1 KO mice
[2] = test system: presynaptic NMDARs of spinal lamina II neurons; test: Spinal cord slice recordings, paclitaxel-treated WT and α2δ-1 KO mice; type: cell-based, mouse; conditions: bath AP5
[3] = target: T1, NMDARs of spinal dorsal horn neurons (Mus musculus, UniProt P35436+P35438+Q01097); test: Electrophysiological recordings in mouse spinal cord slices (spared nerve injury); type: cell-based; conditions: Cacna2d1+/+ mice; bath application of AP5
T1 construct: from tissue; host or cells: mouse lumbar spinal cord slices (dorsal horn / lamina II neurons), WT and Cacna2d1 KO

[4] = test system: rats treated with the Cacna2d1 vector; test: Withdrawal thresholds in rats overexpressing Cacna2d1 (lentiviral vector); type: in vivo, rat; conditions: Cacna2d1 vector rats; AP5, peptide, gabapentin intrathecal; memantine systemic
[5] = target: T2, NMDARs of spinal dorsal horn neurons (Rattus norvegicus, UniProt P35439+Q00959+Q00960); test: Electrophysiological recordings in rat spinal cord slices (SNL, Cacna2d1 vector); type: cell-based; parameters: SNL-induced increase in (NMDAR-mediated) baseline frequency of mEPSCs: dose or concentration left out as unconfirmed; conditions: SNL rats, siRNA intrathecal
T2 construct: from tissue; host or cells: rat lumbar spinal cord slices (lamina II neurons) and synaptosomes made from them
Experimental: Electrophysiological recordings in spinal cord slices: Anesthesia was induced in rats or mice with isoflurane and removed the lumbar spinal cords via laminectomy. […] The spinal cord slices were placed in a glass bottom chamber and continuously perfused with Krebs solution at 5.0 ml/min at 34° C. maintained by an inline solution heater and a temperature controller.
It becomes impossible to visualize neurons in other laminas in adult (>10-week-old) rodent spinal cords because of heavy laminar myelination. […] The tip of the puff pipette was placed 150 μm away from the recorded neuron.
In some experiments, the attached dorsal root was electrically stimulated with a stimulating electrode (0.5 ms, 0.6 mA and 0.1 Hz) to evoke monosynaptic excitatory postsynaptic currents (EPSCs). The α-amino-3-hydroxy-5-methyl-4-isoxazolepropionic acid receptor (AMPAR)-mediated EPSCs were recorded at a holding potential of −60 mV in the presence of 10 μM bicuculline and 1 μM strychnine, whereas NMDAR-mediated EPSCs were recorded at +40 mV in the presence of 10 μM 6-cyano-7-nitroquinoxaline-2,3-dione, 10 μM bicuculline, and 1 μM strychnine. […] All signals were recorded using an amplifier (MultiClamp700B; Axon Instruments Inc., Union City, Calif.), filtered at 1-2 kHz, digitized at 10 kHz, and stored for off-line analysis. Final spinal cord slice recordings were performed 3-4 weeks after the nerve injury or sham surgery. In all electrophysiological experiments, 3-5 animals were used for each recording protocol, and only 1 neuron was recorded in each spinal cord slice.

SNL rats = test: Withdrawal thresholds in spinal nerve ligation (SNL), sham and naive rats; type: in vivo, rat
From the text: Animal models of neuropathic pain: All surgical preparations and experimental protocols were approved by the Animal Care and Use Committee of the University of Texas MD Anderson Cancer Center and conformed to the National Institutes of Health guidelines for the ethical use of animals. Male Sprague-Dawley rats (8-10 weeks of age) were purchased from Harlan Laboratories (Indianapolis, Ind.). L5 and L6 spinal nerve ligation (SNL) were used as an experimental model of neuropathic pain (Cole et al., 2005). In brief, anesthesia was induced with 2-3% isoflurane, isolated the left L5-L6 spinal nerves and ligated them tightly with 6-0 silk sutures. The rats in the sham control group underwent the same surgical procedures except for the nerve ligation.
Intrathecal catheters were implanted in some SNL group rats during isoflurane-induced anesthesia 2-3 weeks after SNL surgery. Briefly, the anesthetized animal was placed on a stereotaxic frame, and a small incision was made at the back of its neck. Then, a small puncture was made in the atlanto-occipital membrane of the cisterna magna, and a PE-10 catheter (˜8 cm) was inserted with the caudal tip reaching the lumbar enlargement of the spinal cord (Luo et al., 2001; Patel et al., 2013). The rostral end of the catheter was exteriorized and closed the wound with sutures. The animals were allowed to recover for at least 4 days before the intrathecal injections were performed. Animals displaying signs of motor or neurological dysfunction were immediately killed with an intraperitoneal injection of phenobarbital (200 mg/kg) or by inhalation of CO2.
Behavioral assessments of nociception: To detect tactile allodynia, von Frey filaments were applied to the animals' left hindpaws (ipsilateral to the nerve injury). The rats or mice were placed individually in suspended chambers on a mesh floor. After an acclimation period of 30 min, a series of calibrated von Frey filaments were applied (Stoelting, Wood Dale, Ill.) perpendicularly to the plantar surface of the hindpaw with sufficient force to bend the filament for 6 s. Brisk withdrawal or paw flinching was considered a positive response. After a response, the filament of the next lower force was applied. In the absence of a response, the filament of the next greater force was applied. Using the up-down method, the tactile stimulus that produced a 50% likelihood of a withdrawal response was calculated (Fuller-Bicer et al., 2009).
To quantify the mechanical nociceptive threshold in the rats and mice (Patel et al., 2013; Dolphin et al., 2012), the paw pressure tests were conducted on the hindpaw with an analgesiometer (Ugo Basile, Varese, Italy). The device was activated by pressing a foot pedal, which triggered a motor that applied a constantly increasing force on a linear scale. […]

α2δ-1 = test: α2δ expression in DRG and dorsal spinal cord after intrathecal siRNA (PCR, Western blot); type: in vivo, rat; conditions: SNL rats
Experimental: Li et al., 2004). α2δ-1-specific siRNA […] ID NO:49) or universal negative-control siRNA (#SIC001, Sigma-Aldrich, St. Louis, Mo.) was mixed with i-Fect (Neuromics, Edina, Minn.) to a final concentration of 400 mg/L for the intrathecal injections. α2δ-1-specific siRNA or negative control siRNA (4 μg/day for 4 days) was administered intrathecally in the SNL rats 3 weeks after surgery (Dolphin et al., 2012). Western immunoblotting analysis of α2δ-1: Western blotting was used to quantify the α2δ-1 expression level in the DRG and dorsal spinal cord. […] The supernatant was carefully collected, and the protein concentration was measured using a DC Protein Assay Kit (Bio-Rad, Hercules, Calif.). […] The specific protein band detected by using the α2δ-1 antibody was confirmed by assays of protein knockdown using the α2δ-1-specific siRNA in vivo. The protein bands were detected with ECL kit (Thermo Fisher Scientific, Waltham, Mass.), and protein band intensity was visualized and quantified using the Odyssey Fc Imager (LI-COR Biosciences, Lincoln, Nebr.). Quantitative PCR analysis: Total RNA was extracted from the DRG and spinal cord tissues at the L5 and L6 levels using TRIzol-chloroform and then treated with DNase I (Invitrogen). cDNA was prepared by using the SuperScript III First-Strand Synthesis Kit and then treated with RNase H (Invitrogen). […]

[6] = morphine-treated Cacna2d1 KO mice, AP5
[7] = morphine-treated WT mice, AP5 50 μM
[8] = paclitaxel-treated α2δ-1 KO mice

T2 sequence (Q00959 20-1464 limits assumed, other chains not shown): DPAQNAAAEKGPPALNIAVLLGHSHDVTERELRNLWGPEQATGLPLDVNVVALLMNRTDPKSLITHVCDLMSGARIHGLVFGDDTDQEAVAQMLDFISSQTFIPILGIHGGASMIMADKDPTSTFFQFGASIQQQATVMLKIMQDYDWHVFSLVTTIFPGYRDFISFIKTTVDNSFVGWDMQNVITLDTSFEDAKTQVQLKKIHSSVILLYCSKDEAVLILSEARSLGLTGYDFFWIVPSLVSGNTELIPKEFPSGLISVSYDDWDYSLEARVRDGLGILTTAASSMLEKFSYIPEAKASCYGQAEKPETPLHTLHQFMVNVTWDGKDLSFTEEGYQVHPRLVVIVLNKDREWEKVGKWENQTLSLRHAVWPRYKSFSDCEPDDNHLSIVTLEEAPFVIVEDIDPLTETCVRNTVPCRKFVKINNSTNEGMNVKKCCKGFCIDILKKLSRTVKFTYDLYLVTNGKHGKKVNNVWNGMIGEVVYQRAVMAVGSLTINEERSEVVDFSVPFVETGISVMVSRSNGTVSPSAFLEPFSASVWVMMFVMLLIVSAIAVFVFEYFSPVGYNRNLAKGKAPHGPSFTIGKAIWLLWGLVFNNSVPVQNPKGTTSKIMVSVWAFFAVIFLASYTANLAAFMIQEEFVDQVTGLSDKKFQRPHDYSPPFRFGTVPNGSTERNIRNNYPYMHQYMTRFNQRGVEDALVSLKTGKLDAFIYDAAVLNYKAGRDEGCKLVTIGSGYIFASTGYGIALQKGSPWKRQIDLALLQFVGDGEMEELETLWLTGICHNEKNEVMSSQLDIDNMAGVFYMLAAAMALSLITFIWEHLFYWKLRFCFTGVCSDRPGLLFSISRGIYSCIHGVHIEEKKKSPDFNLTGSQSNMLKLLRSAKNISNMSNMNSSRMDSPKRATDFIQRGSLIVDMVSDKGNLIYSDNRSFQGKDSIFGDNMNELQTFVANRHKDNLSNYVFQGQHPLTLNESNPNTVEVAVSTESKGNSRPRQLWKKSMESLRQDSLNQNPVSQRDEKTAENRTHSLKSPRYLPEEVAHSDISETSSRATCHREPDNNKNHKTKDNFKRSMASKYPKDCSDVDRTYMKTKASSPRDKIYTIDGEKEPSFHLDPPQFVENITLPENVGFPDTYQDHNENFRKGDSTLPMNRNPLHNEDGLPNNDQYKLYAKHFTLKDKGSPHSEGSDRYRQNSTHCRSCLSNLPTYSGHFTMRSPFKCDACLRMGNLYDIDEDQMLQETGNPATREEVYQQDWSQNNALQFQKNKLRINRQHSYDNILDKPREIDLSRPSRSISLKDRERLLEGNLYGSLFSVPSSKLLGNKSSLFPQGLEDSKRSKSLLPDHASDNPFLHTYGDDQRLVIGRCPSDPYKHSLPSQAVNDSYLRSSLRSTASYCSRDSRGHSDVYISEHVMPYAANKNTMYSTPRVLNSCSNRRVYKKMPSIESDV
T2 sequence (Q00960 27-1482, other chains not shown): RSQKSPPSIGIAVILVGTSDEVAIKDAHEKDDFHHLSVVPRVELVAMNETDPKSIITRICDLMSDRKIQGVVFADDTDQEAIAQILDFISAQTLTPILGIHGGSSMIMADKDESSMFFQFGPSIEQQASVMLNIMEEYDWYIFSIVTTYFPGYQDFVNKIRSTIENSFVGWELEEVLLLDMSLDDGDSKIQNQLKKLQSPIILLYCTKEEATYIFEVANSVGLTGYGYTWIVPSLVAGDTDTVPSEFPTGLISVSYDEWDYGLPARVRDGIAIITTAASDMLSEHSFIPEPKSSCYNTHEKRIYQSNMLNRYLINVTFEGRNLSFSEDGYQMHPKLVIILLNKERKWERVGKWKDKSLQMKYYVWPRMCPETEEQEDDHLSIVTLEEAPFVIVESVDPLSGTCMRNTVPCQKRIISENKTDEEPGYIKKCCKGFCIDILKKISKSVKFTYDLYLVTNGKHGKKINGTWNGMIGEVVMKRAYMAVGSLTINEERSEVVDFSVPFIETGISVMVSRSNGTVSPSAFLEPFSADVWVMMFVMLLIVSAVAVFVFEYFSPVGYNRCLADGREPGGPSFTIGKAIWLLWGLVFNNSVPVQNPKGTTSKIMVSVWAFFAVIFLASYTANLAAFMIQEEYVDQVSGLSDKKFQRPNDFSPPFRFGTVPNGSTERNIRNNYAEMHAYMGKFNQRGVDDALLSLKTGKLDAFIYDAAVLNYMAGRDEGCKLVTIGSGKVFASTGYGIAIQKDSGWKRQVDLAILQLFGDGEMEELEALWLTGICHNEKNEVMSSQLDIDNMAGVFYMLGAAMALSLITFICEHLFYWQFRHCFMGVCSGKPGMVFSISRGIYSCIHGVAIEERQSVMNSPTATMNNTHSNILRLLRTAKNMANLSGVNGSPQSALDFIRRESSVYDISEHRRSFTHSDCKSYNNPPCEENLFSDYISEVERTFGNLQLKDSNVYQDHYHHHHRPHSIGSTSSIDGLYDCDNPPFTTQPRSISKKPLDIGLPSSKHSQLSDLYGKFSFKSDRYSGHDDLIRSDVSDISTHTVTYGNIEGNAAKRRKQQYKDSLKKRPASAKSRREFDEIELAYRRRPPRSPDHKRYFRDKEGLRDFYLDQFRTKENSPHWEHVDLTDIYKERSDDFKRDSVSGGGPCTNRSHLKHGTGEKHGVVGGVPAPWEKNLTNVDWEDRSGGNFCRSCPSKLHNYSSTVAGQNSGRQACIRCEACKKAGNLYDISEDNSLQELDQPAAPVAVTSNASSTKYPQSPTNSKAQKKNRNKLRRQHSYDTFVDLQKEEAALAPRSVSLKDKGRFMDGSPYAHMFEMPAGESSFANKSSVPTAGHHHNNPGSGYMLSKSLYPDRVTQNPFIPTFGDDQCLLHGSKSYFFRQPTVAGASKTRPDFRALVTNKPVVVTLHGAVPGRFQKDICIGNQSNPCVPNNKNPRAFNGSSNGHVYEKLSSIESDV

Substance | ABP and RSNA, subsequent AP5 after α2δ-1Tat peptide (SHRs; AP5 1.0 nmol, 50 nL into the PVN) | ABP and RSNA, AP5 after prior Tat-fused control peptide (SHRs; AP5 into the PVN) | amplitude or PPR of monosynaptic EPSCs [1, 6] | frequency or amplitude of mEPSCs [1, 6] | PPR of evoked EPSCs [1, 7] | amplitude of monosynaptic EPSCs [1, 7] | baseline frequency of mEPSCs [1, 7] | baseline PPR decreased by paclitaxel ([2]; WT mice) | paclitaxel-induced increase in the frequency of mEPSCs ([2]; WT mice) | increased baseline amplitude of evoked EPSCs ([2]; paclitaxel-treated WT mice) | PPR [2, 8] | amplitude of evoked EPSCs [2, 8] | frequency of mEPSCs [2, 8] | nerve injury-increased amplitude of monosynaptic EPSCs evoked by dorsal root stimulation [3] | pain hypersensitivity induced by Cacna2d1 overexpression (tactile and pressure withdrawal thresholds) [4] | SNL-induced increase in puff NMDA currents of dorsal horn neurons ([5]; gabapentin 100 mM for 30 min) | SNL-induced increase in (NMDAR-mediated) baseline frequency of mEPSCs ([5]; gabapentin for 30 min) | pain hypersensitivity of SNL rats (SNL rats; SNL rats, peptides intrathecal or systemic, siRNA intrathecal) | withdrawal thresholds in naive control rats (SNL rats; naive control rats, intrathecal siRNA) | expression level of α2δ-1 in the DRG and dorsal spinal cord (α2δ-1)
(2R)-amino-5-phosphonopentanoate [AP5] | failed to further decrease | significantly decreased | had no effect | had no effect | increased | significantly reduced | substantially reduced | restored | normalized | normalized | had no effect | had no effect | had no effect | readily normalized | readily reversed |  |  |  |  | 
CAAGCAACGAAGUUGUCUA [Cacna2d1-specific siRNA] |  |  |  |  |  |  |  |  |  |  |  |  |  |  |  | completely normalized | completely normalized | reduced pain hypersensitivity | had no effect; also recorded: No significant effects | reduced
